Values quoted from earlier work, collected in US11129837B2, “Salicylate compound composition” (Innovate Pharmaceuticals Limited, priority 2014, dated 2021).

How the values were obtained:
rat stomachs = settings: for effect on PGE2: given either orally or subcutaneously
[1] = human patients
colorectal cancer = settings: daily ingestion over an 8-10 year period, at any dose
[2] = test system: malignant glioblastoma RG2 cells; settings: administered the day before tumour cell inoculation and in established tumours
cancer = settings: daily aspirin
[3] = test system: PGE2 synthesis in C6 cells; settings: high and low dose
glioma stem cells = settings: versus normal glial cells or neural stem cells

Structure (SMILES)	effect on PGE2 (rat stomachs)	gastric damage (rat stomachs; given orally or subcutaneously)	maximum tolerated dose [1]	reduction of CRC-associated mortality (colorectal cancer) [%]	reduction of the risk of colorectal cancer (colorectal cancer) [%]	growth of RG2 glioblastoma cells in rat [2]	apoptosis (A172 glioblastoma cells)	reduction of cancer mortality (cancer)	PGE2 synthesis [3]	growth of glioma stem cells in culture (glioma stem cells)
CC(=O)Oc1ccccc1C(=O)O [aspirin, 2-(acetoxy)benzoic acid]	decrease PGE2	only caused damage when given orally	about 4 g	35	24	significantly inhibited the growth	induced significant apoptosis	around 20%	directly inhibited PGE2 synthesis	–
COc1ccc2c(c1)c(CC(=O)O)c(C)n2C(=O)c1ccc(Cl)cc1 [Indomethacin]	decrease PGE2	–	–	–	–	–	–	–	–	–
CC(=O)OCC(COC(C)=O)OC(C)=O [Glycerin triacetate, 1,3-Diacetyloxypropan-2-yl acetate]	–	–	–	–	–	–	–	–	–	slowing the growth
